The results in this text go back to patent US9988423B2, “Organogels and emulsions for biological and non-biological applications” (Agency for Science, Technology and Research, priority 2012, dated 2018).

Data set [1] can be described thus: Organogel formation (gelation) of peptides in organic solvents. Format: physicochemical. How it is done:
The exemplary peptides are Ac-ID-COOH (L) (dimer), Ac-IVD-COOH (L) (trimer) and Ac-LIVAGD-COOH (L) (hexamer). The organogels depicted in (C) are (1) Ac-ID-COOH (L) 10 mg/ml in ethyl acetate, (2) Ac-ID-COOH (L) 10 mg/ml in toluene, (3) Ac-IVD-COOH (L) 2 mg/ml in acetonitrile, (4) Ac-IVD-COOH (L) 2 mg/ml in ethyl acetate, (5) Ac-IVD-COOH (L) 5 mg/ml in acetone, (6) Ac-LIVAGD-COOH (L) 5 mg/ml in toluene, and (7) Ac-LIVAGD-COOH (L) 10 mg/ml in ethyl acetate.
The organogels depicted in (B) are (1) Ac-IVF-COOH (L) 5 mg/ml in ethyl acetate, (2) Ac-IVF-COOH (L) 5 mg/ml in acetone, (3) Ac-IVF-COOH (L) 5 mg/ml in acetonitrile, (4) Ac-IVF-COOH (L) 5 mg/ml in chloroform, (5) Ac-IVW-COOH (L) 5 mg/ml in acetone, (6) Ac-IVW-COOH (L) 5 mg/ml in ethyl acetate, and (7) Ac-LIVAGF-COOH (L) 5 mg/ml in acetone.
Gels with increasing concentration of Ac-IVD-COOH (L) were prepared in ethyl acetate. […] Organogels of 2 mg/ml and 5 mg/ml Ac-IVD-COOH (L) in ethyl acetate were analyzed by field emission scanning electron microscopy (FESEM). FIGS. 3B and 3C show the effect of the peptide concentration on organogelation for the hexamer Ac-LIVAGD-COOH (L) in acetonitrile or ethyl acetate.
The formulation of the peptide organogels depends on several factors, such as peptide concentration, polarity of the organic solvent, peptide sequence and type of solvent used (see FIG. 3 as well as FIGS. 10A-G and 11). For example, increasing the peptide concentration reduced the gelation time for the formulation of peptide organogels. Based on the experimental data disclosed herein and his general knowledge, a person skilled in the art would have no problems in figuring out suitable gelation conditions (e.g. a suitable organic solvent) for a given peptide. For example, a skilled person knows about the nature of an organic solvent with respect to its polarity or non-polarity. […] Obviously, there is interaction with the polar head group of the peptide. […] Also, it seems that planar configurations (benzene ring, C═O, nitrile) within the solvent helps to stabilize the gel. This might be explained with a more favourable interaction of p-, sp^2-, or sp-orbitals.

Data set [2] in a line: Stability of peptide emulsions in oil:water mixtures (phase separation). Format: physicochemical. The settings on record: 7.5 mg/ml peptide in oil:water 50:50, 80:20, 20:80; in comparison to controls. How it is done:
7.5 mg/ml Ac-IVD-COOH (L) were dissolved in solvent mixtures of oil:water (50:50, 80:20, 20:80).

Residues, ends and D or L forms follow the SMILES beside them. No end group written: not given here.

For the compound `CC[C@H](C)[C@H](NC(C)=O)C(=O)N[C@H](C(=O)N[C@@H](CC(=O)O)C(=O)O)C(C)C` [Ac-IVD-COOH (L)] (Ac-Ile-Val-Asp-OH), the “effect of peptide concentration on organogelation” value in data set [1] (in ethyl acetate, concentrations above 10 mg/ml (1% w/v)) is reported as “only partial gelation”. In addition, the “organogel formation in organic solvents” value in data set [1] is reported as “formed organogels”. In addition, the preferred gelation solvent entry in data set [1] (screening for quantum dot loading) is “gelled preferably in ethyl acetate”. Also, the “phase separation of emulsion” value in data set [2] is on record as “No phase separation”.

On to `CC[C@H](C)[C@H](NC(C)=O)C(=O)N[C@H](C(=O)N[C@@H](Cc1ccccc1)C(=O)O)C(C)C` [Ac-IVF-COOH (L)], for which the “organogel formation in organic solvents” value in data set [1] is listed as “formed organogels”.

As for `CC[C@H](C)[C@H](NC(C)=O)C(=O)N[C@H](C(=O)N[C@@H](Cc1c[nH]c2ccccc12)C(=O)O)C(C)C` [Ac-IVW-COOH (L)] (Ac-Ile-Val-Trp-OH), in data set [1], the “organogel formation in organic solvents” value is reported as “formed organogels”.

As for Ac-LIVAGD [Ac-LIVAGD-COOH (L)], the “effect of peptide concentration on organogelation” value in data set [1] (in acetonitrile, increasing concentration 1-20 mg/ml) is reported as “increased size of the organogel”; in data set [1] (in ethyl acetate, increasing concentration 5, 10, 20 mg/ml) it was “partial gelation”. The “organogel formation in organic solvents” value in data set [1] is listed as “formed organogels”.
